Ten compounds from patent publication US20050148044A1 (priority 1999, published 2005) can be followed below.

The test system of test [1] is C. perfringens. In kind it is cell-based, Clostridium perfringens.
Test [2] has as its system Citrobacter. Type of test: cell-based.
The test system of test [3] is E. coli. Type of test: cell-based.
The next test concerns Bacteroides fragilis. Type of test: cell-based.
Test [4] relates to C. butyricum. In kind it is cell-based, Clostridium butyricum.
The test system of test [5] is C. perfringens. Type of test: cell-based, Clostridium perfringens. The source holds these as a separate data set.
The test system of test [6] is C. butyricum. Type of test: cell-based, Clostridium butyricum. The source holds these as a separate data set.
Test [7] has as its system E. coli. Type of test: cell-based. This is another data set of the same source.
A further test concerns B. fragilis. In kind it is cell-based, Bacteroides fragilis.
Test [8] has as its system Citrobacter. Type of test: cell-based. This is another data set of the same source.
Another test concerns Bifidobacterium bifidum. In kind it is cell-based. The arrangement: key to intensity of the halo / reduction in the microorganisms: Ø: without halo; + → +++: intensity of the halo; + → +++: intensity of the halo; + → +++: intensity of the halo; ↓: reduction in the microorganisms (here by 90%).
The test system of another test is B. longum. In kind it is cell-based. The arrangement: key: Ø: without halo; + → +++: intensity of the halo; + → +++: intensity of the halo; + → +++: intensity of the halo; ↓: reduction in the microorganisms (here by 90%).
For a further test, the system named is B. dentium. In kind it is cell-based. The arrangement: key: Ø: without halo; + → +++: intensity of the halo; + → +++: intensity of the halo; + → +++: intensity of the halo; ↓: reduction in the microorganisms (here by 90%).

Several values for one entry are separate records, joined by “and”; a condition that tells them apart may be missing. Equal values may be shown once. Entries after “also recorded” stand apart in the source; their conditions may differ.

Turning to “5-bromo-4-chloro-3-indolyl-β-D-galactopyranoside [X-Gal]”, the “colors due to the hydrolysis of the substrate” value (“colors due to the hydrolysis” below) with C. perfringens [1] is listed as “difficult to see”. Also, in the test with C. perfringens [1], the “halos around the colonies” value is “blue-gray halos”. For the same compound, the “relative intensity of the color of the colonies (3 to 0)” value (“relative intensity” below) in the test on C. perfringens [1] is listed as 3; in the test on E. coli [3] it was 3; in the test on Bacteroides fragilis it was 2. Also, the “color of the colonies” value in the test with Citrobacter [2] is “cream-colored”; in the test with E. coli [3], “all blue”.

`OC[C@@H]1O[C@@H](Oc2c[nH]c3cc(Cl)c(Br)cc23)[C@@H](O)[C@@H](O)[C@H]1O` [Mag-Gal]: the “relative intensity” value is 3 in the test on C. perfringens [1]; 2 in the test on C. butyricum [4]; 1 and 2 in the test with Citrobacter [2]; 2 in the test with E. coli [3]; 1 with Bacteroides fragilis. Further, in the test with C. butyricum [4], the “growth of the colonies” value was “did not grow”. Moreover, the “color of the colonies” value in the test on Citrobacter [2] was “cream-colored and pink”.

Take `O=P(O)(O)Oc1c[nH]c2cc(Cl)c(Br)cc12` [Mag-Phos]: the “colors due to the hydrolysis” value in the test on C. perfringens [1] is “difficult to see”. The “relative intensity” value was 3 and 2 with C. perfringens [1]; 2 and 3 in the test on Citrobacter [2]; 2 and 3 in the test with E. coli [3]. In addition, the “color of the colonies” value with Citrobacter [2] was “cream-colored (darker center); also recorded: pink (pink agar)”; in the test on E. coli [3], “cream-colored (darker center); also recorded: pink (pink agar)”; in the test with Bacteroides fragilis, “cream-pink; also recorded: cream-colored with a brownish halo”.

`OC[C@H]1O[C@H](Oc2c[nH]c3cc(Cl)c(Br)cc23)[C@H](O)[C@@H](O)[C@H]1O` [Mag-α-Gal]: the “color of the colonies” value is “cream-colored and pink” in the test on C. perfringens [1]; “cream-colored; also recorded: darker or light cream-colored” with C. butyricum [4]; “cream-colored; also recorded: darker or light cream-colored” with Citrobacter [2]; “darker or light cream-colored; also recorded: cream-colored” with E. coli [3].

For the compound `O=P(O)(O)Oc1c[nH]c2ccc(Br)c(Cl)c12` [X-Phos], the “color of the colonies” value was “greenish cream-colored with a slight blue halo” in the test with C. perfringens [1]; “cream-colored; also recorded: cream-colored with a very light halo near the colony and then blue at the periphery” with C. butyricum [4]; “very light greenish cream-colored; also recorded: darker” in the test with E. coli [3]; “cream-colored when they are isolated, blue in group; also recorded: deep cream-colored, light brown” with Bacteroides fragilis. Besides, the “relative intensity” value is 2 in the test on C. perfringens [1]; 2 with C. butyricum [4]; 3 with Citrobacter [2]; 2 and 3 with E. coli [3]; 1 and 2 in the test with Bacteroides fragilis. In the test with C. butyricum [4], the “growth of the colonies” value is “did not grow”.

With `CC(=O)N[C@H]1[C@H](Oc2c[nH]c3ccc(Br)c(Cl)c23)O[C@H](CO)[C@@H](O)[C@@H]1O` [X-acglmn], the “color of the colonies” value in the test on C. perfringens [1] is reported as “cream-colored; also recorded: very slightly greenish cream-colored”; with Citrobacter [2], “cream-colored”; in the test with E. coli [3], “cream-colored”; in the test on Bacteroides fragilis it was “cream-colored”.

`OC[C@H]1O[C@@H](Oc2c[nH]c3ccc(Br)c(Cl)c23)[C@H](O)[C@@H](O)[C@@H]1O` [X-glu]: the “colors due to the hydrolysis” value in the test on C. perfringens [1] was “difficult to see”.

For the compound `O=C(O)[C@H]1O[C@@H](Oc2c[nH]c3ccc(Br)c(Cl)c23)[C@H](O)[C@@H](O)[C@@H]1O` [X-glucu], in the test on C. perfringens [1], the “colors due to the hydrolysis” value is listed as “difficult to see”.

Take `N[C@@H]1CON=C1O` [cycloserine]: the “growth in the presence of antibiotic” value in the test with C. perfringens [5], in the test with C. butyricum [6], in the test on E. coli [7], in the test on B. fragilis and in the test on Citrobacter [8] was “grow” each time.

In the case of ammoniacal iron citrate [AIC], in the test on Bifidobacterium bifidum, the bacterial count result is recorded as “reduction in the number of microorganisms”; the “halo around the colonies” value is given as “more intense; also recorded: became visible”; the “intensity of the halo” value was “+ and ++ and +++↓”; the “reduction in the microorganisms” value is “+++↓”. In addition, the “intensity of the halo” value in the test on B. longum was “+ and ++”. For the same compound, the “intensity of the halo” value with B. dentium was “+ and ++”.
